Laboratory results from PMC6753678, “Fueling Open Innovation for Malaria Transmission-Blocking Drugs: Hundreds of Molecules Targeting Early Parasite Mosquito Stages” (Frontiers in Microbiology, 2019).
Read-outs that look alike come from different tables or passages of the source.

Tests used:
[1] = tested on: P. falciparum late stage (stages IV-V) gametocytes; assay: P. falciparum late stage gametocyte ATP depletion assay (Pf GC-ATP); details: 1: YES; 0: NO
[2] = tested on: P. falciparum late stage (stages IV-V) gametocytes; parameters: method as in Almela et al 2016; details: ref Almela et al 2016, read-out: Pf GCT ATP IC50, cited from earlier work
[3] = tested on: P. falciparum female gametocytes; parameters: method as in Miguel-Blanco et al 2017; details: ref Miguel-Blanco et al 2017, read-out: Pf FGAA IC50, cited from earlier work
HepG2 cells [4] = details: cited from earlier work
[5] = tested on: P. falciparum female gametocytes; assay: P. falciparum female gametogenesis assay (Pf FGAA); details: 1: YES; 0: NO
HepG2 cells [6] = assay: HepG2 cytotoxicity assay
Procedure, shortened: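 Cells at 2,500 per well in MEM with 10% fetal bovine serum and 1% NEAA were exposed to test compounds for 48 h at 37°C, 5% CO2. Viability was read by fluorescence, with percent inhibition calculated against 50 μM doxorubicin (positive) and DMSO (negative) controls.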

[7] = value reported with the Pf FGAA screen, ref Miguel-Blanco et al 2017
[8] = value reported with the Pf GCT ATP screen, ref Almela et al 2016
[9] = HepG2 cytotoxicity unified across the three screens
[10] = HepG2 values of the three screens unified

| Structure (SMILES) | Is compound selective in assay? Pf GC-ATP active? [1] | IC50 ([2]; TCAMS screen comparison) | IC50 ([3]; TCAMS screen comparison) | HepG2 cytoxicity (HepG2 cells [4]; [7]) | HepG2 cytoxicity (HepG2 cells [4]; [8]) | Is compound selective in assay? Pf FGAA active? [5] | Unified cytotox (HepG2 cells [6]; [9]) | IC50 [2] | IC50 [3] | HepG2 cytoxicity (Pf GCT ATP screen) (HepG2 cells [4]; ref Almela et al 2016) | HepG2 cytoxicity (Pf FGAA screen) (HepG2 cells [4]; ref Miguel-Blanco et al 2017) | Unified cytotox (HepG2 cells [6]; [10]) |
| --- | --- | --- | --- | --- | --- | --- | --- | --- | --- | --- | --- | --- |
| C#CCCOc1ccc2ccccc2c1CNCCCCCCNCc1c(OCCC#C)ccc2ccccc12 [TCMDC-137832] | 1 (1: YES) | 410 nM | 920 nM | 4.79 µM | 5.5 µM | 0 (0: NO) | 5.14 µM |  |  |  |  |  |
| C#CCOc1ccc2ccccc2c1CNCCCCCCNCc1c(OCC#C)ccc2ccccc12.CS(=O)(=O)O [TCMDC-137838] | 0 (0: NO) | 500 nM | 1050 nM | 2.92 µM | 3.19 µM | 0 (0: NO) | 3.05 µM |  |  |  |  |  |
| COc1cc2ccccc2c(OC)c1CCNCCCCNCCc1c(OC)cc2ccccc2c1OC.CS(=O)(=O)O [TCMDC-137842] | 1 (1: YES) |  |  |  |  | 0 (0: NO) |  | 310 nM | 1240 nM | 3.2 µM | 4.17 µM | 3.68 µM |
| CCCCOc1cc(OC)c2ccccc2c1CCNCCCCNCCc1c(OCCCC)cc(OC)c2ccccc12.CS(=O)(=O)O [TCMDC-137845] | 0 (0: NO) |  |  |  |  | 0 (0: NO) |  | 500 nM | 760 nM | 3 µM | 1.97 µM | 2.49 µM |
| CCCCOc1c(CCNCCCCNCCc2cc(OC)c3ccccc3c2OCCCC)cc(OC)c2ccccc12.CS(=O)(=O)O [TCMDC-137848] | 1 (1: YES) |  |  |  |  | 0 (0: NO) |  | 80 nM | 610 nM | 3.1 µM | 1.97 µM | 2.54 µM |
| CS(=O)(=O)O.FC(F)(F)COc1ccc(CNCCCCCCNCc2ccc(OCC(F)(F)F)c3ccccc23)c2ccccc12 [TCMDC-137853] | 1 (1: YES) | 55 nM | 630 nM | 2.46 µM | 3 µM | 0 (0: NO) | 2.73 µM |  |  |  |  |  |
| COc1c(CCNCCCCNCCc2cc(Cl)c3ccccc3c2OC)cc(Cl)c2ccccc12.CS(=O)(=O)O [TCMDC-137869] | 1 (1: YES) |  |  |  |  | 0 (0: NO) |  | 80 nM | 330 nM | 3.36 µM | 1.78 µM | 2.57 µM |
| CN(CCCNCc1ccc2ccccc2c1)CCCNCc1ccc2ccccc2c1.Cl [TCMDC-137908] | 1 (1: YES) |  |  |  |  | 1 (1: YES) |  | 50 nM | 90 nM | 4.68 µM | 5.01 µM | 4.85 µM |
| COc1ccc2ccccc2c1CNCCCCCCNCc1c(OC)ccc2ccccc12.Cl [TCMDC-137915] | 1 (1: YES) |  |  |  |  | 0 (0: NO) |  | 250 nM | 700 nM | 3.59 µM | 4.22 µM | 3.90 µM |
| COc1ccc2c(c1)CC(C)(C)NC2CCCCCCCCC1NC(C)(C)Cc2cc(OC)ccc21.O=C(O)C(=O)O (stereo not shown) [TCMDC-137935] | 0 (0: NO) | 790 nM | 1470 nM | 5.62 µM | 5.32 µM | 0 (0: NO) | 5.47 µM |  |  |  |  |  |
| CCOc1cc(CNCCCCCCNCc2cc(OCC)c(OCC)c3ccccc23)c2ccccc2c1OCC.CS(=O)(=O)O [TCMDC-137939] | 0 (0: NO) |  |  |  |  | 0 (0: NO) |  | 750 nM | 1780 nM | 2.7 µM | 2.00 µM | 2.35 µM |
| COc1cc2ccccc2cc1CCNCCCCNCCc1cc2ccccc2cc1OC.CS(=O)(=O)O [TCMDC-137944] | 1 (1: YES) | 110 nM | 620 nM | 1.66 µM | 3.39 µM | 0 (0: NO) | 2.53 µM |  |  |  |  |  |
| CCCOc1ccc(CCNCCCCNCCc2ccc(OCCC)c3ccccc23)c2ccccc12.CS(=O)(=O)O [TCMDC-137952] | 1 (1: YES) | 80 nM | 610 nM | 2.16 µM | 2.6 µM | 0 (0: NO) | 2.38 µM |  |  |  |  |  |
| COc1ccc2c(OC)c(CNCCCCCCNCc3ccc4cc(OC)ccc4c3OC)ccc2c1.CS(=O)(=O)O [TCMDC-137953] | 0 (0: NO) | 1540 nM | 1000 nM | 2.11 µM | 3.2 µM | 0 (0: NO) | 2.66 µM |  |  |  |  |  |
| CCCCCCOc1ccc2ccccc2c1CNCCCCCCNCc1c(OCCCCCC)ccc2ccccc12.CS(=O)(=O)O [TCMDC-137963] | 0 (0: NO) | 480 nM | 1500 nM | 2.40 µM | 3.3 µM | 0 (0: NO) | 2.85 µM |  |  |  |  |  |
| CC(C)Oc1ccc2ccccc2c1CNCCCCCCNCc1c(OC(C)C)ccc2ccccc12.CS(=O)(=O)O [TCMDC-137965] | 1 (1: YES) | 140 nM | 950 nM | 1.91 µM | 2.38 µM | 0 (0: NO) | 2.14 µM |  |  |  |  |  |
| CCCOc1ccc2ccccc2c1CNCCCCCCNCc1c(OCCC)ccc2ccccc12.CS(=O)(=O)O [TCMDC-137966] | 0 (0: NO) | 340 nM | 1030 nM | 2.00 µM | 3.1 µM | 0 (0: NO) | 2.55 µM |  |  |  |  |  |
| CC(C)COc1ccc2ccccc2c1CNCCCCCCNCc1c(OCC(C)C)ccc2ccccc12.CS(=O)(=O)O [TCMDC-137972] | 1 (1: YES) | 100 nM | 810 nM | 2.19 µM | 1.88 µM | 0 (0: NO) | 2.03 µM |  |  |  |  |  |
| CC(C)(C)c1ccc(-c2cc3c(ccc4nc(N)nc(N)c43)[nH]2)cc1 [TCMDC-137977] | 0 (0: NO) | 550 nM | 770 nM | 1.86 µM | 3.26 µM | 0 (0: NO) | 2.56 µM |  |  |  |  |  |
